Tested on: MC-38 colon cancer
Test: Anti-tumor experiment in MC-38 mouse model (subcutaneous xenograft tumor of MC-38 colon cancer in mice)
Type: in vivo
Conditions: for TV (mm^3) on day 0 Mean ± SD: day 0 (baseline at grouping); for TV (mm^3) on day 0 Mean ± SD / TV (mm^3) on day 12 Mean ± SD / TV (mm^3) on day 18 Mean ± SD: female C57BL/6 mice; for TV (mm^3) on day 0 Mean ± SD / TV (mm^3) on day 12 Mean ± SD / TV (mm^3) on day 18 Mean ± SD / TGI (%): i.g., anlotinib 1 mg/kg qd, TLR7 agonist 20 mg/kg tiw, 2 w; for TGI (%): tumor growth inhibition from tumor weight vs control group at end of experiment
Description: In Example 1, the TLR7 agonist is selected from
[drawing 58] and anlotinib is selected fromanlotinib dihydrochloride.
The MC-38 is a colon cancer cell of mouse from Jiangsu Cyto Biotechnology Co., Ltd.
Subcutaneously grafted tumor cells of MC-38 colon cancer (concentration: 2×10^6/mL×0.2 mL/mouse) were inoculated into female C57BL/6 mice at the right side armpit (the site to be inoculated was shaved before inoculating) in a sterile environment, and passaged using a block insertion method. The C57BL/6 mice were 16-18 g in weight, and the breeding environment was SPF level. The diameter of the C57BL/6 xenograft tumor was measured using a vernier caliper, and the mice were randomized into 4 groups when the tumors grew to 100-300 mm^3 (12 mice for control group and 6 mice each for other groups): • i. Control group (blank control); • ii. Monotherapy group: anlotinib, with normal saline as vehicle; • iii. Monotherapy group: TLR7 agonist, with ethanol+tween 80+normal saline (v:v:v=5:5:90) as vehicle; • iv.
The administration method of the combination therapy group is consistent with that of the monotherapy group.
Weights and diameter of the tumor were measured every three days, and the behavior of mice was observed daily. After the experiment was completed, the tumors were removed, weighed and photographed.
The tumor volume and the tumor growth inhibition were calculated using the following formulas: Tumor volume (TV)=(L×W^2)/2.
The TGI (%), as a value of efficacy, was substituted into the Jin zhengjun's formula q=Eab/(Ea+Eb−Ea×Eb), where Ea and Eb represent the efficacy of medicaments used alone, and Eab represents the efficacy of combined use.

| Structure (SMILES) | TV (mm^3) on day 0 Mean ± SD [mm^3] | TV (mm^3) on day 12 Mean ± SD [mm^3] | TV (mm^3) on day 18 Mean ± SD [mm^3] | effect on growth of MC-38 tumor (in words) (summary of Table 2) | TGI (%) |
| --- | --- | --- | --- | --- | --- |
| CCCCOc1nc(N)c2[nH]cc(Cc3ccc(CN4CCCC4)cc3)c2n1 [TLR7 agonist] | 143.93 ± 47.74 | 427.88 ± 161.31 | 747.63 ± 347.13 | can inhibit the growth of MC-38 tumor | 39 |
| COc1cc2c(Oc3ccc4[nH]c(C)cc4c3F)ccnc2cc1OCC1(N)CC1 [anlotinib, 1-[[[4-(4-fluoro-2-methyl-1H-indol-5-yl)oxy-6-methoxyquinolin-7-yl]oxy]methyl]cyclopropylamine, reference compound] | 143.28 ± 45.46 | 427.30 ± 135.63 | 900.32 ± 346.06 |  | 33 |

— patent publication US12195468B2, “TLR7 agonist for treating colorectal cancer and pharmaceutical combination thereof” (CHIA TAI TIANQING PHARMACEUTICAL GROUP CO., LTD., priority 2018, dated 2025)
